# Assays:
# CPT-1 = target: T1, CPT-1 (Homo sapiens, UniProt P50416); experiment: Carnitine palmitoyltransferase-1 (CPT-1) assay in permeabilized MCF-7 cells; type: cell-based; conditions: at 20 ug/ml
# T1 construct: This assay uses permeabilized cells to measure the transfer of [methyl-^14C]L-carnitine; endogenous in cells; host or cells: MCF-7 cells, digitonin-permeabilized
# T1 sequence (P50416 1-773): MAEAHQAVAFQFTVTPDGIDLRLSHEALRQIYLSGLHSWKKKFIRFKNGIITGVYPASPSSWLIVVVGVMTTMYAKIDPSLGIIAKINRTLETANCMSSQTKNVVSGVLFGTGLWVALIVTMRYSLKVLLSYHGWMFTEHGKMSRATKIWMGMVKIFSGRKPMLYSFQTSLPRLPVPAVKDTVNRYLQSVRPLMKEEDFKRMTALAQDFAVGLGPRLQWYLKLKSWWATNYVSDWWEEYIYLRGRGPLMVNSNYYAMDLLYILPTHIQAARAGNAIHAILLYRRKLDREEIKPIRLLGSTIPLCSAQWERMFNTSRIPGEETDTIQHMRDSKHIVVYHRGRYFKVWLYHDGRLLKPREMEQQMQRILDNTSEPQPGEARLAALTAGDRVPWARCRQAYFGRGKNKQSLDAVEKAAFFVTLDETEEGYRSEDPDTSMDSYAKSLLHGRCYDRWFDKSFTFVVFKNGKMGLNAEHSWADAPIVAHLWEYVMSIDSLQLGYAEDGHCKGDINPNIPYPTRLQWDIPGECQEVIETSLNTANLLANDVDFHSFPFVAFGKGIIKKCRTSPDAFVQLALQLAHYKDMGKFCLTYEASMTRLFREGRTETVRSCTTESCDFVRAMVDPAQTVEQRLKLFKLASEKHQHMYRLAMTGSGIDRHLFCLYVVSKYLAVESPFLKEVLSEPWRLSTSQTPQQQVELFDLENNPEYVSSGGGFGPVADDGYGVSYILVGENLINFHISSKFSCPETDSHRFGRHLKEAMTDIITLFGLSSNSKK
# Method: Carnitine Palmitoyltransferase-1 (CPT-1) Assay
# CPT-1 catalyzes the ATP dependent transfer of long-chain fatty acids from acyl-CoA to acyl-carnitine that is inhibited by malonyl-CoA. As CPT-1 requires the mitochondrial membrane for activity, enzyme activity is measured in permeabilized cells or mitochondria. This assay uses permeabilized cells to measure the transfer of [methyl-^14C]L-carnitine to the organically soluble acyl-carnitine deriviative.
# MCF-7 cells are plated in DMEM with 10% fetal bovine serum at 10^6 cells in 24-well plates in triplicate for controls, drugs, and malonyl-CoA. Two hours before commencing the assay, drugs are added at the indicated concentrations made from stock solutions at 10 mg/ml in DMSO, vehicle controls consist of DMSO without drug. Since malonyl-CoA cannot enter intact cells, it is only added in the assay buffer to cells that have not been preincubated with drugs. Following overnight incubation at 37° C., the medium is removed and replaced with 700 μl of assay buffer consisting of: 50 mM imidazole, 70 mM KCl, 80 mM sucrose, 1 mM EGTA, 2 mM MgCl2, 1 mM DTT, 1 mM KCN, 1 mM ATP, 0.1% fatty acid free bovine serum albumin, 70 μM palmitoyl-CoA, 0.25 μCi [methyl-^14C]L-carnitine, 40 μg digitonin with drug, DMSO vehicle control, or 20 μM malonyl-CoA. […] The butanol phase is counted by liquid scintillation and represents the acylcarnitine derivative.
# [1] = test system: MCF-7 human breast cancer cells; experiment: Crystal violet cell growth assay; type: cell-based; conditions: MCF7, MCF-7 cells, read-out: Cr. Violet (IC50)
# Method: Crystal Violet Cell Growth Assay
# The crystal violet assay measure cell growth but not cytotoxicity. This assay employs crystal violet staining of fixed cells in 96-well plates with subsequent solubilization and measurement of OD490 on a spectrophotometer. The OD490 corresponds to cell growth per unit time measured. Cells are treated with the compounds of interest or vehicle controls and IC50 for each compound is computed.
# To measure the cytotoxicity of specific compounds against cancer cells, 5×10^4 MCF-7 human breast cancer cells, obtained from the American Type Culture Collection are plated per well in 24 well plates in DMEM medium with 10% fetal bovine serum, penicillin, and streptomycin. Following overnight culture at 37° C. and 5% CO2, the compounds to be tested, dissolved in DMSO, are added to the wells in 1 μl volume at the following concentrations: 50, 40, 30, 20, and 10 μg/ml in triplicate. […]
# After 72 hours of incubation, cells are stained with 0.5 ml of Crystal Violet stain (0.5% in 25% methanol) in each well. […] Following transfer of 100 μl from each well to a 96-well plate, plates are read at OD490 on a Molecular Devices SpectraMax Plus Spectrophotometer Average OD490 values are computed using SOFTmax Pro Software (Molecular Devices) and IC50 values are determined by linear regression analysis using Prism version 3.02 (Graph Pad Software, San Diego).
compound,measurement,setting,value
"C=CCC1(CC=C)C(=O)SC(C)(CCCCCCCC)C1=O (racemic) [Compound 4, 3,3-Diallyl-5-methyl-5-octyl-thiophene-2,4-dione]",CPT I Stim,CPT-1,125% of control
same,IC50,[1],15 ± 7.7 µg/mL
